{
  "source": "paper PMC10174618",
  "about": "“Monoterpenoid aryl hydrocarbon receptor allosteric antagonists protect against ultraviolet skin damage in female mice” (Nature Communications, 2023)",
  "test_in_all_cases": "biochemical",
  "parameters_in_all_cases": "KINOMEscan scanMAX active site-directed competition binding assay, percent of control, 468 kinases",
  "conditions_in_all_cases": "competition binding, percent of control",
  "key": {"[1]": {"biological_target": "T1, ABL1(Y253F)-phosphorylated (Homo sapiens, UniProt P00519, Y253F)", "T1 construct": "phosphorylated", "outline": "(§1)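 Single-concentration screen (100 μM S-carvone) in a competition binding panel of 468 human kinases (KINOMEscan scanMAX); results given as percent of control, hit cutoff 35%.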"}, "[2]": {"biological_target": "T2, ARK5 (Homo sapiens, UniProt O60285)", "T2 construct": "gene NUAK1", "outline": "as §1"}, "[3]": {"biological_target": "T3, BRK (Homo sapiens, UniProt Q13882)", "T3 construct": "gene PTK6", "outline": "as §1"}, "[4]": {"biological_target": "BUB1 (Homo sapiens, UniProt O43683)", "outline": "as §1"}, "[5]": {"biological_target": "CAMK1 (Homo sapiens, UniProt Q14012)", "outline": "as §1"}, "[6]": {"biological_target": "CIT (Homo sapiens, UniProt O14578)", "outline": "as §1"}, "[7]": {"biological_target": "ERBB3 (Homo sapiens, UniProt P21860)", "outline": "as §1"}, "[8]": {"biological_target": "T4, ERK1 (Homo sapiens, UniProt P27361)", "T4 construct": "gene MAPK3", "outline": "as §1"}, "[9]": {"biological_target": "FGR (Homo sapiens, UniProt P09769)", "sequence (P09769 whole entry)": "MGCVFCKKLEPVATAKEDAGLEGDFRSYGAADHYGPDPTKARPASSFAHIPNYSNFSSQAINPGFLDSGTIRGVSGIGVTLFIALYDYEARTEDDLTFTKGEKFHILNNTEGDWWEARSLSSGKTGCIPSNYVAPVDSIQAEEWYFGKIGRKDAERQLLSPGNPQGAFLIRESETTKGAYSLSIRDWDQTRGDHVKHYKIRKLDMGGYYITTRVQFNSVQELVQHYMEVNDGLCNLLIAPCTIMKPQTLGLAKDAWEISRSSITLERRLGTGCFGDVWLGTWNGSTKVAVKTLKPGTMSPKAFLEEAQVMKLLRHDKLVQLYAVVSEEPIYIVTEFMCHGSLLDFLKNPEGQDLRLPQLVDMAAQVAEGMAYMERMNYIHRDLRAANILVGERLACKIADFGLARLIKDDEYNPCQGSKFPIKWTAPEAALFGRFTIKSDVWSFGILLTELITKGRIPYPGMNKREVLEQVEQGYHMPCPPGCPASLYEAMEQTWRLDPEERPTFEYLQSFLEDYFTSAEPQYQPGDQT", "outline": "as §1"}, "[10]": {"biological_target": "FLT3-autoinhibited (Homo sapiens, UniProt P36888)", "sequence (P36888 whole entry)": "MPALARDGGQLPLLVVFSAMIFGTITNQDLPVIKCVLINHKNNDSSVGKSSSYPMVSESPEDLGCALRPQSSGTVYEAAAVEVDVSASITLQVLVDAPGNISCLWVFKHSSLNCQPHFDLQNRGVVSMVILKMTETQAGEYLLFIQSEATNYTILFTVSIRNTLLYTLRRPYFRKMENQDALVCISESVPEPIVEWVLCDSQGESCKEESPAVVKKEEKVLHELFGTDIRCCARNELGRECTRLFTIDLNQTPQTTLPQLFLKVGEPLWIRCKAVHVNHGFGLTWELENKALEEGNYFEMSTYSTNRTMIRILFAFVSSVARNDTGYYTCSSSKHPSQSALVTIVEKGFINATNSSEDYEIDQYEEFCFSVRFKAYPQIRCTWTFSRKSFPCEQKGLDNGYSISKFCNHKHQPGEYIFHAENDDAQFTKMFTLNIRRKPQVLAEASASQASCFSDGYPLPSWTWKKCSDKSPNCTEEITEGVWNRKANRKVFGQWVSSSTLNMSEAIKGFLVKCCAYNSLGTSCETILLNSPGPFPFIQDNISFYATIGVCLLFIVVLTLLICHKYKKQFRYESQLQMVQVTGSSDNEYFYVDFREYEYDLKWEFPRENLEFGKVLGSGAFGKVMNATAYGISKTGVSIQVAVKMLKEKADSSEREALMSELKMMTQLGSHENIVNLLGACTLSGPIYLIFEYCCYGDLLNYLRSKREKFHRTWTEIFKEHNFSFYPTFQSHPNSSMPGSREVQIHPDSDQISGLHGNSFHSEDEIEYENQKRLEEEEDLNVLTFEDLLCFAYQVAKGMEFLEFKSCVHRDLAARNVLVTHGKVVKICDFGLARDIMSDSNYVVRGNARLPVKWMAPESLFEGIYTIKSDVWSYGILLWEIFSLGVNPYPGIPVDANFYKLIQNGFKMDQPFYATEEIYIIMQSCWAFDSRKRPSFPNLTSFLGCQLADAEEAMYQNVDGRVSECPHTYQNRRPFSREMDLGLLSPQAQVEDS", "outline": "as §1"}, "[11]": {"biological_target": "GRK2 (Homo sapiens, UniProt P25098)", "sequence (P25098 whole entry)": "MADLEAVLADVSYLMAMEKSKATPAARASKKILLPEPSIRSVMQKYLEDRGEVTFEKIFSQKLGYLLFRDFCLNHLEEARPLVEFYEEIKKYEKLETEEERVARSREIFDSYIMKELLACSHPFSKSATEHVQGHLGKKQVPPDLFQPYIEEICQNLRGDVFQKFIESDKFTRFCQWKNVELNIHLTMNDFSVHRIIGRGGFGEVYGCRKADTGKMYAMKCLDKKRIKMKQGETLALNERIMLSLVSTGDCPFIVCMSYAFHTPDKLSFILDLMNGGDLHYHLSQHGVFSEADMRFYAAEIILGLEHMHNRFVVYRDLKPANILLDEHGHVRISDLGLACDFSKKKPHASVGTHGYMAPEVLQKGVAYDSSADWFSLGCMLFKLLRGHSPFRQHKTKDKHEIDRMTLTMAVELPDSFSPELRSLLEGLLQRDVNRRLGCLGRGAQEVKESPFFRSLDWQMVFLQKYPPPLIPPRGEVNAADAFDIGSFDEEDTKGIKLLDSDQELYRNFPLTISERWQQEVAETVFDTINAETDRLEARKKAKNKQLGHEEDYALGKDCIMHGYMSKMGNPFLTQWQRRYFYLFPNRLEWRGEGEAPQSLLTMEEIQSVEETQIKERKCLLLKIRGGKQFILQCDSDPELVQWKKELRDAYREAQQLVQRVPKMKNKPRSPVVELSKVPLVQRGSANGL", "outline": "as §1"}, "[12]": {"biological_target": "T5, JNK1 (Homo sapiens, UniProt P45983)", "T5 construct": "gene MAPK8", "outline": "as §1"}, "[13]": {"biological_target": "KIT(V559D,T670I) (Homo sapiens, UniProt P10721, T670I/V559D)", "sequence (P10721 whole entry V559D/T670I)": "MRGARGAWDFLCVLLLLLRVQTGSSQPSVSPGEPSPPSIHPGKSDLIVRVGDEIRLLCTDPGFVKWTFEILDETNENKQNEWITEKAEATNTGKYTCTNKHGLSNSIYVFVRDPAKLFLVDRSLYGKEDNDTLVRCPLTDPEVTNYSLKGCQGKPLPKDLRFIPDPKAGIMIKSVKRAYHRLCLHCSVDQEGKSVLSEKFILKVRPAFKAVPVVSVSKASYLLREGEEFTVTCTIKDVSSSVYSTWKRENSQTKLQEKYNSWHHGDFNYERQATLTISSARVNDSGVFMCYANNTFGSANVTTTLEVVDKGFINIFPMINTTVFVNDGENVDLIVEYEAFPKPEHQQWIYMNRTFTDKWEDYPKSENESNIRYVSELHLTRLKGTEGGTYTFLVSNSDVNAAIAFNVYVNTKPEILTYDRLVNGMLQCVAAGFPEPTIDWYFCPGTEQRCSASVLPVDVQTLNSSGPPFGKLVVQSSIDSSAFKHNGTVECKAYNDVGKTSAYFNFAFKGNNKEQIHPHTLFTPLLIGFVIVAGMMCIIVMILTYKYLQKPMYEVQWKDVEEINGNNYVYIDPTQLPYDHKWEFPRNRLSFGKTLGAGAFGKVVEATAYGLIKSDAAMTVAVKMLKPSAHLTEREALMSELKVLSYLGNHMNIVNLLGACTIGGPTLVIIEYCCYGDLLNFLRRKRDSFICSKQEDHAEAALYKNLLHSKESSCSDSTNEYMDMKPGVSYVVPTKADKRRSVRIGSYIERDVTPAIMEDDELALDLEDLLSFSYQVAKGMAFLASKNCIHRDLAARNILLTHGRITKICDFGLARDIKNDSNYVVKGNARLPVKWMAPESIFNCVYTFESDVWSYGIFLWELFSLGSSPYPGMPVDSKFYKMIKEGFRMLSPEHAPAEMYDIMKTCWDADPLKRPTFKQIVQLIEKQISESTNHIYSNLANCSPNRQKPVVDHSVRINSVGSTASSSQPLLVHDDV", "outline": "as §1"}, "[14]": {"biological_target": "PAK6 (Homo sapiens, UniProt Q9NQU5)", "outline": "as §1"}, "[15]": {"biological_target": "PDGFRB (Homo sapiens, UniProt P09619)", "outline": "as §1"}, "[16]": {"biological_target": "PIK3CA(E545A) (Homo sapiens, UniProt P42336, E545A)", "sequence (P42336 whole entry E545A)": "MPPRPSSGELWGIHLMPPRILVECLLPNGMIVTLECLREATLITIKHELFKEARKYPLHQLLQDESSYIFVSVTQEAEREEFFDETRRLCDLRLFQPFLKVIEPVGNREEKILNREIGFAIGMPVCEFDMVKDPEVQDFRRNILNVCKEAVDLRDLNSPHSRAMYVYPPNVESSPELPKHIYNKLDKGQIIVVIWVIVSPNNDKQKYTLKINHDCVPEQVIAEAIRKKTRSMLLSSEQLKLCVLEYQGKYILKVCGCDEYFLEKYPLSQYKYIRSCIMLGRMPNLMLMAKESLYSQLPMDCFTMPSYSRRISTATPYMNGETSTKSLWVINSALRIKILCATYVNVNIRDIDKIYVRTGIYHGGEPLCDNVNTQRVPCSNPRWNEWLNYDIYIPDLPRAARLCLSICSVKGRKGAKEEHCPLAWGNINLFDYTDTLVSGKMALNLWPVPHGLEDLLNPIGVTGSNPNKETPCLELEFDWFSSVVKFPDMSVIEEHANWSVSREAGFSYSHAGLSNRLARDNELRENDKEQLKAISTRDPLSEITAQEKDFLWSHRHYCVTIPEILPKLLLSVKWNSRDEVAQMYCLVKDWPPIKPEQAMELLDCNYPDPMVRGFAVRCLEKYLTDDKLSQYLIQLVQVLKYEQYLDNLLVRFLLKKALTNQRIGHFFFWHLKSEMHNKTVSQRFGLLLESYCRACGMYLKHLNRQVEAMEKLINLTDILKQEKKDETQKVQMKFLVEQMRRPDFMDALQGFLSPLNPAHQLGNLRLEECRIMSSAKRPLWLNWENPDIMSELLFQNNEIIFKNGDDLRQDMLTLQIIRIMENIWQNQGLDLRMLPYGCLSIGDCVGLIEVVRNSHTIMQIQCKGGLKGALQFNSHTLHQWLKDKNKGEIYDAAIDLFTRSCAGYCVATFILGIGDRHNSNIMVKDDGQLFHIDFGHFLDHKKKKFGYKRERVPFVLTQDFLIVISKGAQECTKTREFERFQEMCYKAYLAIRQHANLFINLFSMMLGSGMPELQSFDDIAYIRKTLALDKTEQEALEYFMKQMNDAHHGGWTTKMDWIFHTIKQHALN", "outline": "as §1"}, "[17]": {"biological_target": "PIK3CA(E545K) (Homo sapiens, UniProt P42336, E545K)", "sequence (P42336 whole entry E545K)": "as the sequence (P42336 whole entry E545A) above, with A545K counted along it", "outline": "as §1"}, "[18]": {"biological_target": "PIK3CG (Homo sapiens, UniProt P48736)", "outline": "as §1"}, "[19]": {"biological_target": "PRKCD (Homo sapiens, UniProt Q05655)", "outline": "as §1"}, "[20]": {"biological_target": "T6, SGK (Homo sapiens, UniProt O00141)", "T6 construct": "gene SGK1", "T6 sequence (O00141 whole entry)": "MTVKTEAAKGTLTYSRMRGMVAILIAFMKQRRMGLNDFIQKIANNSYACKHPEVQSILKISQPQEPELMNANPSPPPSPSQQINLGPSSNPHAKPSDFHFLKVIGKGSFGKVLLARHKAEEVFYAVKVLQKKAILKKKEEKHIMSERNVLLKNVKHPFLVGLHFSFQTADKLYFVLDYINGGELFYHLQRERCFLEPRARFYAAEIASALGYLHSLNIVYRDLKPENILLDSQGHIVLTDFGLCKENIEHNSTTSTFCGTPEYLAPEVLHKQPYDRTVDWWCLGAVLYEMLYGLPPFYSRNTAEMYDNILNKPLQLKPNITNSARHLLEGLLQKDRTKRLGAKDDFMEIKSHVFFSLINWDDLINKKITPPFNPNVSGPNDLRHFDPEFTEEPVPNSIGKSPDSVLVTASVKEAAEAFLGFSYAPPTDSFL", "outline": "as §1"}, "[21]": {"biological_target": "TNK1 (Homo sapiens, UniProt Q13470)", "outline": "as §1"}, "[22]": {"biological_target": "T7, ZAK (Homo sapiens, UniProt Q9NYL2)", "T7 construct": "gene MAP3K20", "outline": "as §1"}},
  "data": [
    {"smiles": "C=C(C)[C@H]1CC=C(C)C(=O)C1", "note": "[S-carvone]", "values": [
      {"measurement": "remaining binding at 100 µM", "setting": "[1]", "result": 67, "unit": "%"},
      {"measurement": "remaining binding at 100 µM", "setting": "[2]", "result": 100, "unit": "%"},
      {"measurement": "remaining binding at 100 µM", "setting": "[3]", "result": 86, "unit": "%"},
      {"measurement": "remaining binding at 100 µM", "setting": "[4]", "result": 85, "unit": "%"},
      {"measurement": "remaining binding at 100 µM", "setting": "[5]", "result": 75, "unit": "%"},
      {"measurement": "remaining binding at 100 µM", "setting": "[6]", "result": 81, "unit": "%"},
      {"measurement": "remaining binding at 100 µM", "setting": "[7]", "result": 78, "unit": "%"},
      {"measurement": "remaining binding at 100 µM", "setting": "[8]", "result": 75, "unit": "%"},
      {"measurement": "remaining binding at 100 µM", "setting": "[9]", "result": 57, "unit": "%"},
      {"measurement": "remaining binding at 100 µM", "setting": "[10]", "result": 67, "unit": "%"},
      {"measurement": "remaining binding at 100 µM", "setting": "[11]", "result": 58, "unit": "%"},
      {"measurement": "remaining binding at 100 µM", "setting": "[12]", "result": 80, "unit": "%"},
      {"measurement": "remaining binding at 100 µM", "setting": "[13]", "result": 91, "unit": "%"},
      {"measurement": "remaining binding at 100 µM", "setting": "[14]", "result": 98, "unit": "%"},
      {"measurement": "remaining binding at 100 µM", "setting": "[15]", "result": 69, "unit": "%"},
      {"measurement": "remaining binding at 100 µM", "setting": "[16]", "result": 70, "unit": "%"},
      {"measurement": "remaining binding at 100 µM", "setting": "[17]", "result": 63, "unit": "%"},
      {"measurement": "remaining binding at 100 µM", "setting": "[18]", "result": 69, "unit": "%"},
      {"measurement": "remaining binding at 100 µM", "setting": "[19]", "result": 90, "unit": "%"},
      {"measurement": "remaining binding at 100 µM", "setting": "[20]", "result": 70, "unit": "%"},
      {"measurement": "remaining binding at 100 µM", "setting": "[21]", "result": 100, "unit": "%"},
      {"measurement": "remaining binding at 100 µM", "setting": "[22]", "result": 72, "unit": "%"}
    ]}
  ]
}
